We go through ten compounds from ChEMBL document CHEMBL1201862, “PubChem BioAssay data set” (2004).

Some test systems named below: HT-29; ACHN; K562; U-251; MOLT-4; HOP-62; PC-3; 786-0; OVCAR-3; UO-31; SK-OV-3; OVCAR-5; UACC-62; EKVX; Malme-3M; NCI-H460; A498; NCI-H226; UACC-257; COLO 205.
Common to all, as to experiment: NCI-60 cell line screen, 48 h

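Compound exposure: 48 hours, 5 concentrations, 96-well plates. The concentration for 50% growth inhibition is given as GI50.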 The source made the active and inactive calls. Cut-off read from the data, not from the text of the source: active = GI50 up to about 1.1 µM and inactive = higher.

For `CCCCCCCCC/C=C1\CC(CO)(COC(=O)c2ccccc2)OC1=O` (configuration not stated), the GI50 was 19.1 µM (inactive) with HT-29; 29.8 µM (inactive) with ACHN; 27.9 µM (inactive) in the experiment on K562; 21.1 µM (inactive) in the experiment on U-251; 38.2 µM (inactive) in the experiment on MOLT-4; 14.8 µM (inactive) with HOP-62. Further, the GI50 is 17.2 µM (inactive) with PC-3; 17.8 µM (inactive) in the experiment on 786-0; 22.4 µM (inactive) in the experiment with OVCAR-3; 16.3 µM (inactive) with UO-31; 18.3 µM (inactive) in the experiment with SK-OV-3; 15.9 µM (inactive) in the experiment with OVCAR-5. Further, the GI50 was 25.4 µM (inactive) in the experiment on UACC-62; 15.3 µM (inactive) in the experiment with EKVX; 14.5 µM (inactive) in the experiment with Malme-3M; 16 µM (inactive) with NCI-H460; 26 µM (inactive) in the experiment with A498; 23.2 µM (inactive) with NCI-H226. Moreover, the figures for the GI50 in the experiment on UACC-257 and with COLO 205 were 26.5 µM (inactive) and 16.6 µM (inactive), respectively.
As for `CC(CC[C@@]1(C)C(=O)CCC2O[C@]21C)[C@H]1C[C@@H](c2ccoc2)OC1=O` (some centres not stated), the GI50 with HT-29 was 74.5 µM (inactive); with ACHN it was 22.1 µM (inactive); in the experiment on K562, 22.3 µM (inactive); with U-251, 35.9 µM (inactive); with MOLT-4, 28.3 µM (inactive); with HOP-62 it was > 100 µM (inactive). For the same compound, the GI50 in the experiment with PC-3 is 62.2 µM (inactive); in the experiment with 786-0 it was 28.8 µM (inactive); in the experiment with OVCAR-3 it was 26.9 µM (inactive); in the experiment with UO-31, 17.2 µM (inactive); in the experiment with SK-OV-3, > 100 µM (inactive); in the experiment on OVCAR-5, 61.1 µM (inactive). The GI50 is 95.9 µM (inactive) in the experiment with UACC-62; > 100 µM (inactive) in the experiment with EKVX; 31.5 µM (inactive) with Malme-3M; > 100 µM (inactive) in the experiment on NCI-H460; > 100 µM (inactive) in the experiment on A498; > 100 µM (inactive) with NCI-H226. Moreover, the GI50 in the experiment on UACC-257 is > 100 µM (inactive); in the experiment on COLO 205, 24.2 µM (inactive).
As to `O=C1OC(c2ccco2)=N/C1=C\c1ccc(Cl)c(Cl)c1`, the GI50 was > 100 µM (inactive) with HT-29; 60 µM (inactive) with ACHN; > 100 µM (inactive) with K562; 57.7 µM (inactive) in the experiment on U-251; > 100 µM (inactive) with MOLT-4; 27.4 µM (inactive) in the experiment on HOP-62. Also, the GI50 with PC-3 was > 100 µM (inactive); in the experiment on 786-0 it was 38 µM (inactive); in the experiment on OVCAR-3 it was 89.7 µM (inactive); in the experiment on SK-OV-3 it was 47.2 µM (inactive); with OVCAR-5 it was > 100 µM (inactive); in the experiment with UACC-62, > 100 µM (inactive). The GI50 in the experiment on EKVX was 75.9 µM (inactive); in the experiment with Malme-3M, 86.1 µM (inactive); in the experiment on NCI-H460, 88.7 µM (inactive); in the experiment with A498, > 100 µM (inactive); in the experiment on NCI-H226 it was 57.5 µM (inactive); in the experiment on UACC-257, > 100 µM (inactive). For the same compound, in the experiment on COLO 205, the GI50 is > 100 µM (inactive).
As for `COC(=O)C1CC2CC1C1C2SC(F)(F)C1(F)F` (configuration not stated), the GI50 in the experiment on ACHN, in the experiment on U-251, in the experiment with MOLT-4, in the experiment on HOP-62, with PC-3 and in the experiment on 786-0 was > 100 µM (inactive) throughout. Also, the GI50 in the experiment with OVCAR-3, in the experiment on UO-31, in the experiment on SK-OV-3, in the experiment with OVCAR-5, with UACC-62 and with EKVX was > 100 µM (inactive) throughout. For the same compound, the GI50 in the experiment with Malme-3M, in the experiment with NCI-H460, with A498, in the experiment on NCI-H226, in the experiment with UACC-257 and in the experiment with COLO 205 was > 100 µM (inactive) each time.
Take `CC(C)(C)c1nc2c(o1)/C(=N\c1ccc(F)cc1)c1ccccc1C2=O`: the GI50 in the experiment on HT-29 is 17.6 µM (inactive); in the experiment with ACHN, 4.85 µM (inactive); with K562, 4.1 µM (inactive); in the experiment with U-251 it was 3.48 µM (inactive); in the experiment on MOLT-4, > 100 µM (inactive); with HOP-62, 15.9 µM (inactive). Besides, the GI50 with PC-3 was 5.41 µM (inactive); in the experiment with 786-0, 27.2 µM (inactive); with OVCAR-3 it was 1.06 µM (active); in the experiment with UO-31, 4.59 µM (inactive); in the experiment on SK-OV-3, 22.1 µM (inactive); in the experiment on OVCAR-5, 14.6 µM (inactive). Besides, the GI50 with UACC-62 was 2.55 µM (inactive); with EKVX, 23.7 µM (inactive); with Malme-3M, 1.97 µM (inactive); in the experiment on NCI-H460 it was 5.74 µM (inactive); in the experiment with A498, 27.4 µM (inactive); with NCI-H226 it was 16.9 µM (inactive). For the same compound, the GI50 in the experiment on UACC-257 is 2.36 µM (inactive); in the experiment with COLO 205, 15.7 µM (inactive).
Regarding `CSc1nncc2[nH]c(C)nc12`, the GI50 in the experiment on HT-29, in the experiment on ACHN, in the experiment with K562, in the experiment with U-251, in the experiment on MOLT-4 and in the experiment on HOP-62 was > 100 µM (inactive) each time. Also, the GI50 in the experiment with PC-3, in the experiment with 786-0, in the experiment on OVCAR-3, in the experiment on UO-31, in the experiment with SK-OV-3 and with OVCAR-5 was > 100 µM (inactive) each time. The GI50 in the experiment on UACC-62, in the experiment with EKVX, in the experiment on Malme-3M, with A498, in the experiment on NCI-H226 and in the experiment on UACC-257 was > 100 µM (inactive) in each case. In the experiment with COLO 205, the GI50 is > 100 µM (inactive).
For the compound `CCCCC1=NNC(=O)C1`, the GI50 in the experiment with HT-29, in the experiment on ACHN, in the experiment with U-251, in the experiment on MOLT-4, in the experiment on HOP-62 and with PC-3 was > 100 µM (inactive) throughout. Further, the GI50 in the experiment with 786-0, in the experiment on OVCAR-3, with UO-31, in the experiment on SK-OV-3, in the experiment on OVCAR-5 and in the experiment on UACC-62 was > 100 µM (inactive) throughout. In addition, the GI50 in the experiment with EKVX, in the experiment on Malme-3M, in the experiment on NCI-H460, in the experiment with A498, with NCI-H226 and in the experiment on UACC-257 was > 100 µM (inactive) each time. For the same compound, the GI50 in the experiment on COLO 205 was > 100 µM (inactive).
In the case of `O=C1C[C@@]23CCC4(CC2CCC[C@H]3O1)OCCO4` (some centres not stated), the GI50 with HT-29, with ACHN, with K562, in the experiment on U-251, with MOLT-4 and with HOP-62 was > 100 µM (inactive) in each case. Further, the GI50 in the experiment on PC-3, in the experiment with 786-0, with OVCAR-3, in the experiment on SK-OV-3, in the experiment on OVCAR-5 and in the experiment on UACC-62 was > 100 µM (inactive) throughout. The GI50 with EKVX, in the experiment on Malme-3M, in the experiment with NCI-H460, in the experiment with A498, in the experiment with NCI-H226 and in the experiment on UACC-257 was > 100 µM (inactive) each time. In addition, the GI50 with COLO 205 is > 100 µM (inactive).
For the compound `COc1ccc(C[C@@H]2OC3(C=CC(=O)CC3Sc3ccccc3)O[C@H]2Cc2ccc(OC)cc2)cc1` (some centres not stated), the GI50 in the experiment with HT-29 was 1.79 µM (inactive); with ACHN, 1.36 µM (inactive); in the experiment with K562, 1.9 µM (inactive); in the experiment with U-251 it was 1.42 µM (inactive); in the experiment on MOLT-4, 0.282 µM (active); in the experiment on HOP-62, 0.432 µM (active). The GI50 in the experiment on PC-3 was 1.72 µM (inactive); with 786-0, 0.151 µM (active); in the experiment with OVCAR-3 it was 1.64 µM (inactive); in the experiment on UO-31 it was 1.09 µM (active); with SK-OV-3 it was 3.15 µM (inactive); in the experiment on OVCAR-5, 1.14 µM (inactive). The GI50 in the experiment with UACC-62 was 2.15 µM (inactive); with Malme-3M it was 1.85 µM (inactive); in the experiment with NCI-H460, 3.01 µM (inactive); in the experiment on A498, 4.08 µM (inactive); in the experiment with NCI-H226 it was 1.53 µM (inactive); with UACC-257, 1.47 µM (inactive). Besides, the GI50 in the experiment on COLO 205 was 1.85 µM (inactive).
For the compound `O=c1c2cccnc2[nH]c2ccc3cn[nH]c3c12`, the GI50 with HT-29 was > 10 µM (inactive); in the experiment on ACHN, 3.97 µM (inactive); in the experiment with K562 it was > 10 µM (inactive); in the experiment with U-251, > 10 µM (inactive); in the experiment on MOLT-4, > 10 µM (inactive); in the experiment with HOP-62 it was > 10 µM (inactive). For the same compound, the GI50 with PC-3, in the experiment on 786-0, in the experiment with OVCAR-3, in the experiment on SK-OV-3, with OVCAR-5 and in the experiment on UACC-62 was > 10 µM (inactive) in each case. The GI50 was 3.48 µM (inactive) in the experiment with EKVX; > 10 µM (inactive) with Malme-3M; 7.43 µM (inactive) in the experiment with NCI-H460; > 10 µM (inactive) in the experiment with A498; 5.38 µM (inactive) with NCI-H226; > 10 µM (inactive) with UACC-257. Besides, in the experiment with COLO 205, the GI50 is > 10 µM (inactive).
